Assay results from patent US20060288450A1, “Plant N-acylethanolamine binding proteins” (Samuel Roberts Noble Foundation, priority 2004, published 2006).

How the values were obtained:
[1] = test system: Arabidopsis microsomal protein; assay: [3H]NAE 14:0 radioligand binding to Arabidopsis leaf microsomes; parameters: species or system Arabidopsis thaliana; conditions: 5 nM SR144528, [3H]NAE 14:0 50 nM
Procedure: FIG. 1. Analysis of specific binding of [^3H]NAE 14:0 to DDM solubilized (0.2 mM) microsomes (25 μg of protein) isolated from A. thaliana (ecotype Columbia) leaves (150,000×g) with a concentration ranging from 10 to 80 nM. Specific binding was determined by subtracting nonspecific binding (binding in the presence of 1,500× nonradioactive NAE 14:0) values from total radioligand binding values in duplicate assays. Binding affinity and Bmax of [^3H]NAE 14:0 was estimated by fitting the saturation binding data to nonlinear regression analysis for a one-site binding equation using Prism 3.0, Graphpad software, San Diego.
FIG. 7 Microsomes from A. thaliana leaves and affinity purified (P) protein from T10-1 cell lysate were incubated with [^3H]NAE 14:0 (50 nM) in the presence and absence of CB receptor antagonist SR144528 (5 nM) to compare the influence on [3H]NAE binding. Values represent means of triplicate assays from an individual experiment reproduced twice.
[^3H]NAE 14:0 radioligand was synthesized from [9,10-^3H(N)]myristic acid (PerkinElmer Life Sciences, Boston) in a modified two step reaction (Hillard et al., 1995; Devane et al., 1992). In step one, acylchloride is prepared from [3 H] […] The [^3H]NAE 14:0 formed was further purified and quantified by separating on thin layer chromatography (TLC) and radiometric scanning respectively (Tripathy et al., 2003). […]

[2] = test system: NAE binding protein (At1g26440); assay: [3H]NAE 14:0 radioligand binding to recombinant At1g26440 protein expressed in E. coli; parameters: species or system Arabidopsis thaliana
Procedure: FIG. 4 Full length cDNAs synthesized through RT-PCR on Arabidopsis total RNA using gene specific primers to At1g26440 were cloned into pTrc His2 expression vector and the recombinant protein over expressed in E. coli Top10 competent cells (Invitrogen, Cat. No. K4400-01 and K4400-40). Positive clones selected on amp-glucose agar plates were analyzed for producing NAE 14:0 binding protein by using [^3H]NAE 14:0 binding assay (Tripathy et al., 2003). Bacterial lysate (L) prepared from pelleted positive clones induced with IPTG for recombinant protein production was used as the protein source. T10-1, T-10-2, T10-3: Positive clones carrying A. thaliana NAE-binding protein (At1g26440); T10-4: Negative clone carrying the gene sequence in reverse orientation; T10-0: Control Top10 cells. Binding assay was performed on cell lysate (L) and the affinity purified (ProBond purification system, Invitrogen) recombinant protein (P) fraction. Histograms represent binding activity (from two studies with four replicates each).
FIG. 5 Saturation binding of [^3H]NAE 14:0 to a candidate NAE binding protein (At1g26440) expressed in E. coli Top10 cell lysate. The candidate NAE binding protein was a full-length, in-frame cDNA. […]
[^3H]NAE 14:0 radioligand was synthesized from [9,10-^3H(N)]myristic acid (PerkinElmer Life Sciences, Boston) in a modified two step reaction (Hillard et al., 1995; Devane et al., 1992). […] The [^3H]NAE 14:0 formed was further purified and quantified by separating on thin layer chromatography (TLC) and radiometric scanning respectively (Tripathy et al., 2003).
Binding activity of [^3H]NAE 14:0 was carried out with DDM-solubilized microsomes from Arabidopsis (ecotype, columbia) leaves (Tripathy et al., 2003b) or recombinant protein produced in E. coli and solubilized in DDM. […] Unbound ligands were washed off with ice cold binding buffer (75 mM potassium-phosphate buffer, pH 7.2, 300 mM sucrose, 7.5 mM KCl, 0.75 mM EDTA, 0.75 mM EGTA, 0.5 mM ascorbate, 5 mM DTT, and 1.5% BSA) under vacuum and frozen filters were excised into scintillation cocktail for radioactivity estimation.

[3] = test system: defense gene (Phenylalanine-ammonia lyase) expression; conditions: coadministration, leaves; cited from earlier work
[4] = test system: membrane-associated NAE-binding activities; conditions: cited from earlier work; for challenge of [3H]NAE 14:0 binding by CB receptor antagonist: plant membranes

Row | Molecule | effect on NAE14:0 binding [1] | effect on NAE14:0 binding ([2]; 5 nM SR144528, [3H]NAE 14:0 50 nM, recombinant At1g26440 gene product) | effect on NAE specific binding ([2]; higher concentrations of SR144528 (above 5 nM), preparation not specified) | effect on NAE-regulated defense gene expression [3] | challenge of [3H]NAE 14:0 binding by CB receptor antagonist [4] | affinity of recombinant protein for NAE 14:0 (saturation binding) ([2]; recombinant At1g26440 expressed in E. coli, DDM solubilized) | binding activity of [3H]NAE 14:0 (affinity) ([4]; membrane-associated, saturable, in lower nanomolar range)
1 | SR144528 | diminished | diminished | eliminated | blocked | potently challenged |  | 
2 | CCCCCCCCCCCCCC(=O)NCCO [NAE 14:0] |  |  |  |  |  | high affinity | high affinity
3 | Cc1c(C(=O)NN2CCOCC2)nn(-c2ccc(Cl)cc2Cl)c1-c1ccc(I)cc1 [AM 281] |  |  |  |  | potently challenged |  | 
